Source: patent US4778796A, “ω-(3-pyridyl)alkenamide derivatives and anti-allergenic pharmaceutical compositions containing same” (Dainippon Pharmaceutical Co., Ltd., priority 1985, dated 1988)
Where a name gives a salt, the structure may show the parent alone. Read-outs that look alike come from different tables or passages of the source.

Experiments:
[1] = tested on: passive cutaneous anaphylaxis (PCA); test: Inhibitory effect on passive cutaneous anaphylaxis (PCA) in rats; assay type: in vivo, rat (male Wistar); conditions: Rattus norvegicus, po, read-out: Inhibition (PCA in rats)
Experimental: (1) Inhibitory effect on passive cutaneous anaphylaxis (PCA) in rats:
This test was carried out by the method of Perper et al. [cf.
Male Wistar rats (130-180 g) were injected with 0.1 ml of a dilute solution of mouse antiserum to egg albumin in two sites of the shaved ventral skin. Forty-eight hours later each rat was challenged by an intravenous injection of 2 mg of the antigen together with 1 ml of a 0.5% Evan's blue saline solution. The rats were sacrificed 30 minutes after the challenge. The area of the blueing lesions was measured on the undersurface of the skin. The average value of the two lesions of each rat was regarded as the response of the rat. Test compounds in a dose of 20 mg/kg, dissolved or suspended in a 0.5% aqueous tragacanth solution, were administered orally 1 hour before the antigen challenge. The inhibitory rate was determined by comparing the responses of the rats given each test compound with those of the rats given only a 0.5% aqueous tragacanth solution. Each group of 3 rats was used for each test compound. The mouse antiserum to egg albumin was produced by the method of Levine and Vaz [cf. Int. Arch. Allergy Appl.

[2] = tested on: experimental asthma; test: Inhibitory effect on experimental asthma in rats; assay type: in vivo, rat (male Wistar); conditions: Rattus norvegicus, po
Experimental: (2) Inhibitory effect on experimental asthma in rats: This test was carried out by the method of Church and Miller [cf. Brit. […] Male Wistar rats (200-250 g) were sensitized by an intraperitoneal injection of 1 ml of a 0.01% egg albumin solution containing 1 mg of Al(OH)3. Two weeks later, the rats were anesthetized with 1.3 g/kg of urethane. The trachea and jugular vein were cannulated. Respiratory volume and velocity were measured by attaching one end of the tracheal cannula to respiratory volume meter connected to a carrier amplifier and an integrator. The rats were challenged by an intravenous injection of 4 mg/kg of egg ablumin 30 minutes after the anesthesia. Test compounds, dissolved or suspended in a 0.5% aqueous tragacanth solution, were administered orally 1 hour before the antigen challenge. Each group of 4 rats was used for each dose of the test compound. ED50 values were calculated from the best fit linear regression line of inhibitory rates of respiratory volume and velocity in each dose.

[3] = tested on: contact hypersensitivity to oxazolone; test: Inhibitory effect on contact hypersensitivity to oxazolone in mice; assay type: in vivo, mouse (male ICR); conditions: topical, 1.0 mg/ear; 24 hours after challenge
Experimental: (3) Inhibitory effect on contact hypersensitivity to oxazolone in mice:
This test was carried out by the method of Evans et al. [cf. Brit.
Male ICR mice (18-20 g) were used. The abdominal region of the mice was carefully clipped with an electric clipper, and 0.1 ml of a 0.5 w/v % oxazolone solution in absolute ethanol was gently rubbed into the clipped area. Five days after the sensitization 20 μl of a 0.5 w/v % oxazolone solution in acetone or chloroform, or the solution containing test compound was applied to both sides of the right ear. The left ear was not treated. Twenty-four hours after the challenge, the animals were sacrificed with diethyl ether. The circular parts (5.5 mm in diameter) of both ears were removed by punching and then weighed. The inhibitory rate was determined by comparing the ear swelling of the mice treated with oxazolone containing test compound with that of the mice treated with oxazolone. Each group of 8 mice was used for each dose of the test compound.

[4] = biological target: T1, 5-lipoxygenase (Cavia porcellus, UniProt A0A286X958); test: Inhibitory effect on 5-lipoxygenase activity in guinea pig leukocytes; assay type: biochemical, guinea pig (male Hartley); conditions: 10^-4 M
T1 construct: The cytosol fraction of peritoneal exudate cells from male Hartley guinea pigs (400-700 g) was used as 5-lipoxygenase; from tissue; host or cells: cytosol fraction of peritoneal exudate cells (leukocytes) of male Hartley guinea pigs
T1 sequence (A0A286X958 1-674): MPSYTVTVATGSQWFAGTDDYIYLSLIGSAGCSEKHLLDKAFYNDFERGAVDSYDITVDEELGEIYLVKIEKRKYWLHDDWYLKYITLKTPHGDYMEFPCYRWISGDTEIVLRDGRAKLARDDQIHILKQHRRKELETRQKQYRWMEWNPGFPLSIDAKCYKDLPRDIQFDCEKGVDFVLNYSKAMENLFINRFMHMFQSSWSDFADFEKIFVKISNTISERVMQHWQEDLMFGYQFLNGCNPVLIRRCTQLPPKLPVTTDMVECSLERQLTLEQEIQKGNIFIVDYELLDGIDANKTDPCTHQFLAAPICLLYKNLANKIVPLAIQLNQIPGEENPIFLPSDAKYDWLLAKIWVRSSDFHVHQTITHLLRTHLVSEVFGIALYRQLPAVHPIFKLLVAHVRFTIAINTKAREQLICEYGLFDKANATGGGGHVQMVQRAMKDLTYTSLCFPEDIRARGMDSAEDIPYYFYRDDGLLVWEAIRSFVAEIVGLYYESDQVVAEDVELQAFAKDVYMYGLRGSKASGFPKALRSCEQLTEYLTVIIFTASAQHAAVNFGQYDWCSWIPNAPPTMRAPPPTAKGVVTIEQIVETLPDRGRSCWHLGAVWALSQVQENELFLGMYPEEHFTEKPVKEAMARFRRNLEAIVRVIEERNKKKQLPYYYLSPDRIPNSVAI
Experimental: (1) Inhibitory effect on 5-lipoxygenase activity in guinea pig leukocytes:
This test was carried out by the method of Miyamoto and Obata (cf. "Perspectives in Prostaglandin Research," ed. by Y. Shiokawa et al., Excepta Medica, Amsterdam-Oxford-Princeton, 1983, p78) with minor modifications.
The cytosol fraction of peritoneal exudate cells from male Hartley guinea pigs (400-700 g) was used as 5-lipoxygenase. The standard reaction mixture contained 50 mM potassium phosphate buffer, 1 mM CaCl2, 1 mM glutathione, 1 mM adenosine triphosphoric acid, 10 μM indomethacin and the enzyme. The mixture was incubated for 5 minutes at 30° C. after addition of [1-^14 C]arachidonic acid (0.02 μCi). The reaction was terminated by addition of 0.6 ml of the cold organic solvents (diethyl ether/methanol/0.2M citric acid=30/4/1). The organic layer (300 μl) was applied onto a precoated silica gel 60F254 glass plate (E. Merck, West Germany). Radioactivity on the plate was monitored by a radiochromatogram scanner (Packard, U.S.A.). 5-Lipoxygenase activity was calculated according to the following equation. [formula]
The effects of the test compounds were expressed in terms of percent inhibition.

[5] = tested on: histamine-induced contraction of isolated guinea pig trachea; test: Inhibitory effect on histamine-induced contraction of isolated guinea pig trachea; parameters: species or system guinea pig (male Hartley); conditions: 3×10^-5 M histamine; isolated guinea pig trachea; read-out: Anti-hist. activity IC50
Experimental: (2) Inhibitory effect on histamine-induced contraction of isolated guinea pig trachea:
Male Hartley guinea pigs (400-700 g) were used. Zig-zag strips of guinea pig trachea were prepared by the method of Emmerson and Mackay [cf. J. Pharm. […] Dose-response curves for histamine were obtained before and 5 minutes after the addition of test compounds. Inhibitory rate was calculated from contraction heights in 3×10^-5 M of histamine without vs. with test compound.

[6] = tested on: human basophils; test: Inhibitory effect on histamine release induced by anti-human IgE antibody from healthy human basophils; assay type: cell-based; conditions: Homo sapiens, read-out: Histamine release inhibit. IC50
Experimental: (3) Inhibitory effect on histamine release induced by anti-human IgE antibody from healthy human basophils:
Basophils from nonallergic volunteers were collected by the method of Levy and Osler [cf. […] The cells were washed once with a cold Tris-A buffer at pH 7.4 (25 mM Tris, 120 mM NaCl, 5 mM KCl and 0.03% human serum albumin) containing 4 mM EDTA and twice with Tris-A buffer. After washing, the cells were resuspended at 5-10×10^6 leukocytes/ml in Tris-ACM buffer at pH 7.6 (Tris-A buffer, 0.6 mM CaCl2 and 1 mM MgCl2). One ml of the cell suspension was incubated with 0.1 ml of a solution of test compound or vehicle for 15 minutes at 37° C., and then for further 45 minutes with 0.1 ml of anti-human IgE antibody. After ice-cooling, the reaction mixtures were centrifuged at 1,200 rpm for 8 minutes at 4° C. The supernatant fluids and the cells were analysed separately for histamine by a modification of the spectrophotofluorometric technique of Shore et al. [cf. […] Histamine release rate was calculated according to the following equation. [formula] A: total histamine (supernatant+cell) B: supernatant histamine without anti-IgE
C: supernatant histamine with anti-IgE
Inhibitory rate was calculated from histamine release rates without vs. with test compound.

[7] = Acute lethal toxicity in mice; conditions: mouse, in vivo; oral, mortality observed for two weeks
Experimental: Test 3 Acute lethal toxicity in mice
Test compounds were suspended in a 0.5% aqueous tragacanth solution. LD50 values were calculated according to the method of Litchfield and Wilcoxon [cf. J. Pharmacol. Exp. Ther., 96, 99 (1949)].

## CN1CCC(=C2c3ccccc3CC(=O)c3sccc32)CC1 [Ketotifen fumarate, reference compound]
[1]
  inhibition in vivo at 20 mg/kg: 54.7%
[2]; read-out: ED50, respiratory velocity
  ED50: 20.5 mg/kg
[2]; read-out: ED50, respiratory volume
  ED50: 22.6 mg/kg
[3]
  % Inhibition of ear swelling: 49.0%
[4]
  5-lipoxygenase inhibiting activity (in words): did not exhibit any significant inhibiting activity
[4]; read-out: 5-Lipoxygenase inhibit. activity, Inhibition
  inhibition at 100 µM: 11.5%
[5]
  IC50: 2.9 nM
[6]
  IC50: > 100000 nM
[7]
  LD50 at 336 h: 537 mg/kg
